The record followed here is a melting point compilation (Tetko et al.; mined from patent text by program, amines drawn as free bases though some values may be those of a salt).

Turning to `COc1cccc2c1C(NC(C)=O)=NS2(=O)=O`, the melting point (in general, the temperature, or range, at which the solid turns liquid) lay in the range of 242 to 245 °C.

Molecule `Cc1nc(-c2ccc(N3CC(C(=O)O)OC3=O)cc2)no1` (configuration not stated) had a melting point of 215 to 218 °C.

Turning to `CC(=O)CC1NC(=O)c2sccc2-n2cccc21` (configuration not stated), the melting point was 268 °C.

Molecule `CC1(C)C(=O)Nc2cc3[nH]c(C4=CCCC4)nc3cc21` came in with a melting point of 233 to 235 °C.

As for `CCCCCON=C(C(=O)OCC)c1csc(N)n1`, the melting point lay in the range of 86 to 88 °C.

As for `C/C(=C\c1ccc(C(=O)O)cc1)c1ccc2c(c1)C(C)(C)C=CC2(C)C`, the melting point lay in the range of 234 to 236 °C.

Consider `O=c1ncc(F)cn1COCc1ccc(Cl)cc1`, for which the melting point came to 103 °C.

As for `CC1(C)CCC(C)(C)c2cc(C(C)(O)COc3ccc(C(=O)O)c(O)c3)ccc21` (configuration not stated), the melting point was in the range of 170 to 171 °C.

Molecule `CCn1ncc(C(=O)c2ccc(S(C)(=O)=O)cc2Cl)c1O` returned a melting point of 172 to 175 °C.

As to `NC(=O)c1ccc2c(c1)CCOC2CCN1CCN(c2ccc(Cl)cc2)CC1` (configuration not stated), the melting point is 169 to 171 °C.

With `CS(=O)(=O)c1ccc(/C=C2/C(=O)CCc3ccccc32)cc1`, the melting point lay within 152 to 153 °C.

For `Cn1c(C(F)(F)F)cc(C#N)c1-c1ccc2ccccc2c1`, the melting point came out at 134 °C.

`c1ccc(-c2ccc3c(c2)sc2c4ccc(-c5ccccc5)cc4sc32)cc1` had a melting point of more than 300 °C.

In the case of `Cc1ccc2c(c1O)NC(S(=O)O)C1CC(C=CC(N)=O)=CN1C2=O` (configuration not stated), the melting point fell in the range of 252 to 255 °C.

With `CCC(=O)O[C@@H]1[C@@H](c2ccccc2)Nc2c(ccn3c(C)c(C)nc23)[C@H]1OCCOC`, the melting point fell in the range of 106 to 107 °C.

Take `C=CCN(C)C(=O)Cn1c(-c2ccc(Cl)cc2)nc2cccnc21`: the melting point lay within 124 to 127 °C.

In turn, `O=[N+]([O-])c1ccc2c(c1)CNCCS2` registered a melting point of 104 to 105 °C.

Regarding `CCOC(=O)c1ncc2[nH]c3c(Br)cc(Br)cc3c2c1COC`, the melting point is 98 to 99 °C.

In turn, `COc1cc(F)c(C(=O)Cc2c(Cl)cncc2Cl)cc1OC1CCCC1` had a melting point of 116 °C.

On to `CCN1C(=O)C2C3CCC(CC3)C2(c2ccc(Cl)c(Cl)c2)C1=O` (configuration not stated), for which the melting point was in the range of 131 to 134 °C.

Regarding `CCNC1(c2ccccc2Cl)C(=O)Nc2ccc(OCC)cc21` (configuration not stated), the melting point was in the range of 195 to 200 °C.

`CCC(CC)N1CCN(C)c2c1cc(C)nc2Oc1c(C)cc(C)cc1C` had a melting point of 78 to 80 °C.

Turning to `O=C(Nc1ccc2ccc(Cl)nc2n1)C1=CCC=CC1`, the melting point is 210 °C.

On to `O=C(CSc1ccccc1)C1CCCCN1` (configuration not stated), for which the melting point fell in the range of 68.5 to 69.5 °C.

In turn, `Cc1cc(C2(O)C(=O)c3ccccc3C2=O)c(C)cc1O` registered a melting point of 228 to 230 °C.

The molecule `CON(Cc1ccc(F)c(F)c1)C(=O)C1=C(O)C(=O)N(C)C1` had a melting point of 146 to 147 °C.

With `CCOC(=O)COC(=O)CN1CCCCCC1=O`, the melting point lay within 33.5 to 35 °C.

In turn, `COc1ccc(C2=NN(C3CCN(S(=O)(=O)c4cccc(C)c4)CC3)C(=O)C(C)(C)C2)cc1OC` yielded a melting point of 150 to 152 °C.

`COC(=O)COc1ccc(C2C(=O)Oc3c2cc(C(C)(C)C)cc3C(C)(C)C)cc1` (configuration not stated) returned a melting point of 115 to 117 °C.

`COc1ccc(C=CC(=O)CN2CCOCC2)cc1` yielded a melting point of 78 °C.

For the molecule `CC1CCN(C(=O)c2nc(-c3ccccc3)nc3ccccc23)CC1`, the melting point amounted to 138 °C.

`Nc1ccc(C(=O)CCCCOCc2ccccc2)cc1` gave a melting point of 72 °C.

`CCCCCCCCN(C[C@H]1CCC[C@H](CN(CCCCCCCC)C(=O)Nc2ccc(N(C)C)cc2)C1)C(=O)Nc1ccc(N(C)C)cc1` (relative stereo) had a melting point of 115 to 119 °C.

In turn, `CP(=O)(NCC(=O)OCc1ccccc1)C1CC(c2ccccc2)=NO1` (configuration not stated) registered a melting point of 132 to 135 °C.

Take `Cc1cn(-c2nccc3[nH]c(=O)ccc23)cn1`: the melting point lay in the range of 257 to 259 °C.

For the molecule `Nc1cccc(OCCN2CCc3ccccc3C2)c1N`, the melting point lay within 76 to 77 °C.

Consider `CCOC(=O)C(C)(C)NC(=O)c1cccc(C2=NC(C)(C)Cc3cc(OCC)c4c(c32)CC(C)(C)O4)c1`, for which the melting point lay within 155 to 156 °C.

The molecule `O=C(O)CC1CCCCCCCCCCC1=O` (configuration not stated) registered a melting point of 124 °C.

With `Nc1sc2c(c1Cc1cccs1)CCN(Cc1ccccc1)C2`, the melting point fell in the range of 122 to 123 °C.

With `COc1ccc(C(=C/C=C/C(=O)NCCCCc2cccnc2)c2ccc(OC)cc2)cc1`, the melting point lay within 76 to 77 °C.

The molecule `CCOc1ccc(S(=O)(=O)N(CC(=O)NN=C2C(=O)Nc3ccccc32)c2ccccc2)cc1` displayed a melting point of 136 °C.

For the molecule `CCOC(=O)Cn1c(-c2ccc3c(c2)OCCO3)nc2ccccc21`, the melting point fell in the range of 113 to 114 °C.

`Cn1nc(-c2ncc(Cl)cc2F)c(Cl)c1C(F)(F)F`: the melting point lay in the range of 76 to 78 °C.

`O=c1c(Cc2ccccc2)cn(-c2ccc(F)cc2)c2ncccc12` registered a melting point of 208 to 209 °C.

Turning to `CCNc1nc(CC)c(C(=O)c2ccc(Cl)c([N+](=O)[O-])c2)s1`, the melting point lay in the range of 149 to 152 °C.

In the case of `CC(C)(C)OC(=O)c1ccc2c(c1)NCc1ccccc1O2`, the melting point lay in the range of 121 to 123 °C.

Consider `CC(C)=Cc1ccc(-c2ccc(CCCI)cc2)cc1`, for which the melting point is 58 to 61 °C.

In the case of `CN(C)C(=O)N1CCc2ccc(S(=O)(=O)NC(=O)NCC3CCCC3)cc2CC1`, the melting point fell in the range of 165 to 166 °C.

Molecule `CC(=O)Oc1cc(OCC(F)(F)C(F)(F)F)ccc1C(=O)O` displayed a melting point of 126 °C.

In turn, `Cc1ccc(C(=O)N2CCCC(c3ccc(Cl)cc3)=N2)cc1` returned a melting point of 163 to 166 °C.

As to `C=CNC(=O)C(C)(Cc1ccccc1)S(=O)(=O)CCCl` (configuration not stated), the melting point is 107 to 108 °C.

As to `CC(=O)C=Cc1ccc(OCc2ccccc2)cc1`, the melting point lay within 106 to 107 °C.

In turn, `CC(C)CC(CN(C)C)(C(=O)O)C(=O)O` displayed a melting point of 134 to 137 °C.

On to `CN(C)Cc1cccc(NCCCNc2nc(N)nn2C)c1`, for which the melting point was in the range of 101 to 102 °C.

For the molecule `FC(F)(F)Oc1ccc(-n2ccc(CBr)n2)cc1`, the melting point lay within 71 to 73 °C.

As to `COc1ccc(Oc2c(Cl)cc([N+](=O)[O-])cc2Cl)cc1C(C)C`, the melting point is 75 to 77 °C.

In turn, `Nc1cc(C(=O)NC2CC2)n[nH]1` registered a melting point of more than 246 °C.

The molecule `CS(=O)(=O)c1cc(S(N)(=O)=O)sc1CO` registered a melting point of 175 to 178 °C.

Take `OC1COC(n2c(Cl)nc3cc(Cl)c(Cl)cc32)C(O)C1O` (configuration not stated): the melting point stood at 184 °C.

Regarding `CCC(=O)N1CCC(=NO)c2cc(Cl)ccc21`, the melting point fell in the range of 166 to 169 °C.

Molecule `Oc1cccc(Cc2ccc3ccccc3c2O)c1` yielded a melting point of 100 to 101 °C.

As to `Cn1nc(C(F)(F)F)c(CS(=O)(=O)C2=NOC(C)(C)C2)c1C#N`, the melting point was 105 to 108 °C.

Molecule `O=c1c(Cc2ccccc2)c2n(c(=O)n1CCCCSc1cccc3nccn13)CCCS2(=O)=O` yielded a melting point of 53 to 54 °C.

As to `N[C@@H](Cc1ccc(Cl)c(OC(F)(F)C(F)F)c1)[C@H](O)c1ccc(F)cc1` (racemic), the melting point fell in the range of 109 to 110 °C.

`CCCCn1c(=O)n(CC=C(C)C)c(=O)c2c1ncn2S(=O)(=O)c1ccc(OC)c(OC)c1` came in with a melting point of 92 to 95 °C.

Regarding `Cc1cc(C#N)cc(CC#N)c1`, the melting point was in the range of 63 to 64 °C.

`O=C1c2ccccc2C(=O)N1CCCCc1nccc(NC(=S)NCC(F)(F)F)n1` showed a melting point of 204 to 205 °C.

As to `Cc1cccc(C)c1N1Cc2cnc(Nc3ccccc3)nc2N(c2cccc(CCN)c2)C1=O`, the melting point amounted to 128 °C.

Consider `O=C1OC(OC(=O)c2cccnc2Cl)c2ccccc21` (configuration not stated), for which the melting point fell in the range of 137 to 138 °C.

In the case of `CCSC(=O)OCOC(=O)c1ccco1`, the melting point fell in the range of 37.2 to 38.4 °C.

`Cn1c(=O)ccc2cnc(N)nc21`: the melting point lay in the range of 237 to 253 °C.

With `CCOC(=O)c1cn(C2CC2)c2c(F)c(F)c(F)c(CC)c2c1=O`, the melting point was in the range of 139 to 140 °C.

The molecule `C=CCN(C)C(=O)Nc1cc(C(C)(C)C)on1` returned a melting point of 90 to 91 °C.

`O=C(O)c1cccc(NC(=O)C(CS)CC2CN(Cc3ccccc3)CCO2)c1` (configuration not stated): the melting point lay within 110 to 112 °C.

The molecule `CN1CC=C(C(=O)N2c3ccccc3NC(=O)c3cscc32)CC1` showed a melting point of 210 to 212 °C.

The molecule `CN(C)C=NS(=O)(=O)c1cc(CCNC(=O)C(F)(F)F)ccc1OCC(F)(F)F` gave a melting point of 130 °C.

`COc1cccc(-c2nn3c(c2C(=O)O)-c2ccccc2CC3)c1` yielded a melting point of 190 °C.

For the molecule `CCOC(=O)C(Cc1ccc(OCCN2CCC(C)(C)c3cc(C(=NOC)c4ccccc4)ccc32)cc1)Nc1ccccc1C(=O)c1ccccc1` (configuration not stated), the melting point lay in the range of 78 to 80 °C.

In turn, `CCCCCCOc1ccc(NC(=O)Nc2ccccc2CCc2cc(C(C)(C)C)c(O)c(C(C)(C)C)c2)cc1` registered a melting point of 174 to 176 °C.

Molecule `CCC(Oc1ccccc1)c1nnc(N2C(=O)N(C)CC2O)s1` (configuration not stated) yielded a melting point of 137 to 138 °C.

As to `CC(C)(C)c1cc(-c2nn(CCCBr)c(=O)o2)cc(C(C)(C)C)c1O`, the melting point lay within 130 to 131 °C.

Take `C=CCc1cc(C(=O)c2ccnn2C)c(Cl)c(Cl)c1O`: the melting point was 141 to 143 °C.

The molecule `O=C(O)C(=O)c1ccc(OCCOc2ccc3ccccc3c2)c(Cl)c1` displayed a melting point of 167 to 168 °C.

Molecule `COc1ccc(C(=O)NCCCCCCCCCCNC(=O)c2ccc(OC)cc2)cc1` showed a melting point of 168 to 170 °C.

Turning to `CC(C)N(CCn1c(CO)nc2c(N)nc3ccccc3c21)C(N)=O`, the melting point is more than 240 °C.

In the case of `CCOC(=O)CCC1Cc2cc(O)ccc2NC1=O` (configuration not stated), the melting point is 138 °C.

The molecule `O=[N+]([O-])c1cc(-c2ncnc(C(F)F)c2Cl)c(Cl)cc1Cl` displayed a melting point of 107 to 109 °C.

For the molecule `COc1ccc(C(=O)Nc2ccc(F)cc2)cc1NS(=O)(=O)c1cccc(C#N)c1`, the melting point was 221 to 225 °C.

With `O=C(NCCCCCn1cncn1)c1ccc(Cl)cc1`, the melting point lay in the range of 68 to 70 °C.

`Nc1ncn(C[C@@H](CO)OCP(=O)(O)O)c(=O)n1` came in with a melting point of 175 to 178 °C.

`COc1cc2ncnc(Sc3cccc(O)c3)c2cc1OC` gave a melting point of 221 to 230 °C.

For the molecule `O=C1c2ccccc2C(=O)N1C1CC=CCC1` (configuration not stated), the melting point came out at 114 °C.
